Measured values: patent US6767890B1, “Peptides having anti-cancer and anti-inflammatory activity” (priority 1998, dated 2004)

Target: Ca++/Calmodulin Dep. PK II
Experiment: Ca++/Calmodulin Dep. PK II enzyme assay
Assay type: biochemical, rat
Conditions: historical value; read-out: ^1IC, (IC50 of reference compound)
Protocol: The peptide was further screened in vitro in a variety of enzyme and biochemical assays. Methods employed were adapted from the scientific literature to maximize reliability and reproducibility. The primary literature reference for each assay is listed in Table 11 opposite the results for each assay.
Results presented in Table 10, “Results,” are the average of duplicate determinations, unless otherwise noted.
Reference compounds were tested concurrently at 5 concentrations as an integral part of each assay to ensure the validity of the results obtained.
Enzyme assays were performed under conditions described in Table 8, “Experimental Conditions.”. The commercial suppliers and catalog numbers of substrates employed in this study are given in Table 7, “Material Sources.” The name, commercial source, and catalog numbers of concurrent reference compounds (controls) employed in this study are given in Table 9, “Reference Compound Data.” The reaction catalyzed by each enzyme is listed in Table 8, “Experimental Conditions.”
Biochemical assay results are presented in Table 10, as the percent inhibition of specific binding or activity, and unless noted are the average of duplicate tubes tested at each concentration.

`CN1CCN(CCCN2c3ccccc3Sc3ccc(C(F)(F)F)cc32)CC1` [Trifluoperazine, reference compound] gave an IC50 of 27 µM.
